What all share (format): cell-based
The target of data set [1] is T1, SVCT1 (Homo sapiens, UniProt Q9UHI7).
T1 construct: gene SLC23A1
Put plainly: inhibition of […]-vitamin C uptake in SVCT1-expressing […] cells (urate uptake IC50 […]).

The target of data set [2] is T1, SVCT1. Described as above. This is another data set of the same source.
In data set [3] the target is T2, Svct1 (Mus musculus, UniProt Q9Z2J0).
T2 construct: gene Slc23a1; mouse Svct1 WT, EGFP fusion
In words: […]-vitamin C uptake and inhibition of […]-urate uptake in Svct1-expressing HEK293 cells.

The target in data set [4] is T1, SVCT1. In words: […]-vitamin C uptake and inhibition of […]-urate uptake in SVCT1-expressing HEK293 cells.
In data set [5] the target is T1, SVCT1. Put plainly: inhibition of […]-vitamin C uptake in SVCT1-expressing […] cells (urate uptake IC50 […]). This is another data set of the same source.
Data set [6] deals with T3, GLUT9a (Homo sapiens, UniProt Q9NRM0).
T3 construct: gene SLC2A9; full-length human GLUT9a/SLC2A9a WT in pEGFP-N1
T3 sequence (Q9NRM0 1-540): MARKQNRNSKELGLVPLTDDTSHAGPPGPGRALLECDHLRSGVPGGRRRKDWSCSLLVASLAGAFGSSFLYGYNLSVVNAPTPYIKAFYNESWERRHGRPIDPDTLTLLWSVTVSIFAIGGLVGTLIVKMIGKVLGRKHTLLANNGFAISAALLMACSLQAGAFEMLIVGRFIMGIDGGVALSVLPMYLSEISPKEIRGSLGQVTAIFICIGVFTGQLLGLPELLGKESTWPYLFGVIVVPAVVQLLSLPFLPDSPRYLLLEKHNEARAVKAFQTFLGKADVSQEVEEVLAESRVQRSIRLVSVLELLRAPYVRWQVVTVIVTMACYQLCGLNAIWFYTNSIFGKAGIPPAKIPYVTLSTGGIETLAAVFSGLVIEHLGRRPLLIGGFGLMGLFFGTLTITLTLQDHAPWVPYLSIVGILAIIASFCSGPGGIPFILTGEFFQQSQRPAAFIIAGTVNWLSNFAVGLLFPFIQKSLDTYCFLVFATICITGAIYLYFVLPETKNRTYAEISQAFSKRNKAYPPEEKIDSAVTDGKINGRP
Put plainly: [[…]-14C]-urate uptake in GLUT9a-expressing cells, high-potassium buffer.

For data set [7], the target named is T4, ABCG2 (Homo sapiens, UniProt Q9UNQ0).
T4 construct: EGFP-ABCG2 in plasma membrane vesicles from 293A cells
T4 sequence (Q9UNQ0 1-655): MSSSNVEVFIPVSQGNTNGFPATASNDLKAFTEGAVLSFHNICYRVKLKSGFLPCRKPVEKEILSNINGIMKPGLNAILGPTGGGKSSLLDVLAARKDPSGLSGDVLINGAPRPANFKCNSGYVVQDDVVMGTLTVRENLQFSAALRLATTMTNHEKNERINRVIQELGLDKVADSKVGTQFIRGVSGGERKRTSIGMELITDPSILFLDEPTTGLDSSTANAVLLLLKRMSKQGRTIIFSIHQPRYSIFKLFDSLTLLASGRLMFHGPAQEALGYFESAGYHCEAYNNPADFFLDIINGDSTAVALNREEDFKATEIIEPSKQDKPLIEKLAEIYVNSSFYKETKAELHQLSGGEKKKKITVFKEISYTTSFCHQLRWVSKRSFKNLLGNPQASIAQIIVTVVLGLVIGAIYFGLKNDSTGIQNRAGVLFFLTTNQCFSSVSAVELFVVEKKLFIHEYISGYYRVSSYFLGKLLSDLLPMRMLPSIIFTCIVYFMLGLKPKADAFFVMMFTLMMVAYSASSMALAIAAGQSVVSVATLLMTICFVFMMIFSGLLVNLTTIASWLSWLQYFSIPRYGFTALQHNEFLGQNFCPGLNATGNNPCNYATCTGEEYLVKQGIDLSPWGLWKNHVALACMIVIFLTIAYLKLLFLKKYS

For data set [8], the target named is T5, URAT1 (Homo sapiens, UniProt Q96S37).
T5 construct: gene SLC22A12; full-length human URAT1 WT in pEGFP-C1
T5 sequence (Q96S37 1-553): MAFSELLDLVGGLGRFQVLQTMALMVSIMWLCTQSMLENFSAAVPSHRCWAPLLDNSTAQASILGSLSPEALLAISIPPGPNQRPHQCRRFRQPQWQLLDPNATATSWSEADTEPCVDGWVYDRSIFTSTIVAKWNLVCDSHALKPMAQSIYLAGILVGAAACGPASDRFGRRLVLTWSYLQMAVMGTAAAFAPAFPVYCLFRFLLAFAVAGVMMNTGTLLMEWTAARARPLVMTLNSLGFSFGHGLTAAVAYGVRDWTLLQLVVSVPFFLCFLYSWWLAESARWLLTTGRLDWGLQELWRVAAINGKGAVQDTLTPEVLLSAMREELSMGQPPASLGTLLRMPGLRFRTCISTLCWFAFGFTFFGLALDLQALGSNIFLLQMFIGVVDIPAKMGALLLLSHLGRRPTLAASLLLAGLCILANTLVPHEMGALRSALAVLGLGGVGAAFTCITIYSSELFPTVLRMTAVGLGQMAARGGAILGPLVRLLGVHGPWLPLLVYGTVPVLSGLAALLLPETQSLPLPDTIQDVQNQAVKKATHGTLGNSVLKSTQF
In words: [[…]-14C]-urate uptake in URAT1-expressing HEK293 cells.

T1 sequence (Q9UHI7 whole entry): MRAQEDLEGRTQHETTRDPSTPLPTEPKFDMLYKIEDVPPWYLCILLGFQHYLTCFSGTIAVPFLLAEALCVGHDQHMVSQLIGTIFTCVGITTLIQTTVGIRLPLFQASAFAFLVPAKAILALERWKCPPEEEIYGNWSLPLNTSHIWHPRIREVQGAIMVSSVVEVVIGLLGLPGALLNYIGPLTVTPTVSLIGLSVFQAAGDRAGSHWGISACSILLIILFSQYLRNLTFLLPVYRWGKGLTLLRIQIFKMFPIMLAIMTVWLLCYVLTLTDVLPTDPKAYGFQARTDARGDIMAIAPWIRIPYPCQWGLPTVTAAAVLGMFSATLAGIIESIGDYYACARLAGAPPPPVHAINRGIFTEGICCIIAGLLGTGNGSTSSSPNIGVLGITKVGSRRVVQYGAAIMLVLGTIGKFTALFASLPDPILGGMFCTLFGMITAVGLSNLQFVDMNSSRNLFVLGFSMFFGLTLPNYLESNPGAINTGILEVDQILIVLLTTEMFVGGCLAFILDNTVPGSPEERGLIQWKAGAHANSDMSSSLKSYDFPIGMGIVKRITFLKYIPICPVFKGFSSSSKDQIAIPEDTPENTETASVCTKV
T2 sequence (Q9Z2J0 whole entry, the tested form may be a part): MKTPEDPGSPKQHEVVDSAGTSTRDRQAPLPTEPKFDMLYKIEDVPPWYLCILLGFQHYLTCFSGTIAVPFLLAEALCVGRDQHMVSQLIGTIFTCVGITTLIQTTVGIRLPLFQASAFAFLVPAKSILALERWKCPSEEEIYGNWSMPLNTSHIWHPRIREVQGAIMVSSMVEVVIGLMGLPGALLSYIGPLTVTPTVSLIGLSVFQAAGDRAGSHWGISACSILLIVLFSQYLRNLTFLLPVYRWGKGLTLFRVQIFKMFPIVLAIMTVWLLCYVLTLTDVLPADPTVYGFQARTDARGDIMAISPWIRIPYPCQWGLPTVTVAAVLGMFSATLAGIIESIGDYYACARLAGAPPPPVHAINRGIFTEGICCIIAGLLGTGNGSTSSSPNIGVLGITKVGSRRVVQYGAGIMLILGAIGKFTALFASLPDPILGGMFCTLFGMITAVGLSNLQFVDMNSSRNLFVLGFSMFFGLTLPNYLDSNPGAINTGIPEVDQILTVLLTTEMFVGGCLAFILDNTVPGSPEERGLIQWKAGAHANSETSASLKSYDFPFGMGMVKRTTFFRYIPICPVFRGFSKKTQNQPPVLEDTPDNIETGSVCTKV

Usually IC50 stands for the concentration that inhibits the measured activity by half. In turn, `CCc1oc2ccccc2c1C(=O)c1cc(Br)c(O)c(Br)c1` [BBR, benzbromarone] came in with a 50% inhibitory concentration (IC50) in data set [1] of 8.39 µM. In other words, the single-digit micromolar range. `O=C(c1cc(Cl)c(O)c(Cl)c1)N1CS(=O)(=O)c2ccccc21` [DU, dotinurad] registered an IC50 in data set [2] of 11.8 µM. On to `O=C1O[C@H]([C@@H](O)CO)C(O)=C1O` [vitamin C], for which the concentration for half-maximal inhibition (IC50) was 130 µM in data set [3] and 95.1 µM in data set [4]. Take `CCc1oc2cc(O)ccc2c1C(=O)c1cc(Br)c(O)c(Br)c1` [6-OH BBR, 6-hydroxybenzbromarone]: the IC50 in data set [5] came to 2.86 µM. For `O=c1[nH]c(=O)c2[nH]c(=O)[nH]c2[nH]1` [urate], the “[8-14C]-urate uptake in GLUT9a-expressing cells, high-potassium buffer” value in data set [6] is “Even under appropriate experimental conditions in which urate transport activities were detected, neither URAT1, GLUT9, nor ABCG2 could transport vitamin C”. Moreover, the “[8-14C]-urate vesicle transport assay with ABCG2-expressing membrane vesicles” value in data set [7] is “Even under appropriate experimental conditions in which urate transport activities were detected, neither URAT1, GLUT9, nor ABCG2 could transport vitamin C”. In addition, the “[8-14C]-urate uptake in URAT1-expressing HEK293 cells” value in data set [8] is listed as “Even under appropriate experimental conditions in which urate transport activities were detected, neither URAT1, GLUT9, nor ABCG2 could transport vitamin C”.

Values taken from PMC10011331, “Vitamin C transporter SVCT1 serves a physiological role as a urate importer: functional analyses and in vivo investigations” (Pflugers Archiv, 2023).
